In US8426425B2, “Aminopyrimidines useful as inhibitors of protein kinases” (Vertex Pharmaceuticals Incorporated, priority 2006, dated 2013):

Biological target: T1, GSK-3β (AA 1-420) (Homo sapiens, UniProt P49841)
T1 construct: GSK-3β (AA 1-420)
Assay: GSK-3 Inhibition Assay (standard coupled enzyme system)
Type: biochemical
Details: 20 nM GSK-3β, 20 μM ATP, 300 μM peptide, 30° C.
Description: Compounds of the present invention were screened for their ability to inhibit GSK-3β (AA 1-420) activity using a standard coupled enzyme system (Fox et al., Protein Sci. 1998, 7, 2249). Reactions were carried out in a solution containing 100 mM HEPES (pH 7.5), 10 mM MgCl2, 25 mM NaCl, 300 μM NADH, 1 mM DTT and 1.5% DMSO. Final substrate concentrations in the assay were 20 μM ATP (Sigma Chemicals, St Louis, Mo.) and 300 μM peptide (American Peptide, Sunnyvale, Calif.). Reactions were carried out at 30° C. and 20 nM GSK-3β. Final concentrations of the components of the coupled enzyme system were 2.5 mM phosphoenolpyruvate, 300 μM NADH, 30 μg/ml pyruvate kinase and 10 μg/ml lactate dehydrogenase.
An assay stock buffer solution was prepared containing all of the reagents listed above with the exception of ATP and the test compound of the present invention. The assay stock buffer solution (175 μl) was incubated in a 96 well plate with 5 μl of the test compound of the present invention at final concentrations spanning 0.002 μM to 30 μM at 30° C. for 10 min. Typically, a 12-point titration was conducted by preparing serial dilutions (from 10 mM compound stocks) with DMSO of the test compounds of the present invention in daughter plates. The reaction was initiated by the addition of 20 μl of ATP (final concentration 20 μM). Rates of reaction were obtained using a Molecular Devices Spectramax plate reader (Sunnyvale, Calif.) over 10 min at 30° C. The Ki values were determined from the rate data as a function of inhibitor concentration.

T1 sequence (P49841 whole entry, species assumed, the tested form may be a part): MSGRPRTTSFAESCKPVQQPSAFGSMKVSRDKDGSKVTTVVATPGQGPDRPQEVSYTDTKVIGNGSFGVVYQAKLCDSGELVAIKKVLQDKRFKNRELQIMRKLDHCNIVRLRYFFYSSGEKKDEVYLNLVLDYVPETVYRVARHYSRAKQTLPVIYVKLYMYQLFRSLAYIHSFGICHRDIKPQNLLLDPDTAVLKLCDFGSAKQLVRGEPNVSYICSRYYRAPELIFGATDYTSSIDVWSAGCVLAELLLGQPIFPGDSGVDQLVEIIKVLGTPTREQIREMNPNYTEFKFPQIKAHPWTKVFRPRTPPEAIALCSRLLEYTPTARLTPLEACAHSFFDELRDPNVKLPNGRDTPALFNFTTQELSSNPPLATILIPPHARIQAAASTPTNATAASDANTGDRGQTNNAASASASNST

**Q.** How did the Ki turn out when `Fc1cnc2[nH]nc(Nc3cc(N4CCC4)nc(C4CCCCC4)n3)c2c1` [Compound I-1, N-(6-(azetidin-1-yl)-2-cyclohexylpyrimidin-4-yl)-5-fluoro-1H-pyrazolo[3,4-b]pyridin-3-amine] was run?
**A.** The Ki was < 50 nM.

**Q.** Which Ki does the source give for `Cc1cc(Nc2cc(N3CCC3)nc(C3CCCCC3)n2)n[nH]1` [Compound I-2] here?
**A.** The Ki was < 50 nM.

**Q.** With `Fc1ccc2[nH]nc(Nc3cc(N4CCC4)nc(C4CCCCC4)n3)c2c1` [Compound I-3] as the compound, how does the Ki read?
**A.** Its Ki is 50 to 100 nM.
